Patent US20200390767A1, “Formulations of 4-(7-Hydroxy-2-isopropyl-4-oxo-4H-quinazolin-3-yl)-benzonitrile” (NOVARTIS AG, priority 2019, published 2020)
≈ marks a conversion by molar mass, not a printed value. Where two headings read alike, the source gives them in different places.

Legend:
[1] = Solubility of compound I in solvents; format: physicochemical
Description: As noted above, compound I is sparingly soluble in various media.

healthy volunteers = assay: First in human study, safety (SAD and MAD adverse events); format: in vivo; settings: 8 times daily for 7 days
Procedure: This example describes a first-in-human study of compound I conducted in healthy volunteers. A total of 54 subjects were administered to study medication. Part 1 of the first in human study administered single ascending doses of 0.15%, 1.5%, 2.5% w/v (1 drop) of compound I in an eye drop.
Part 2 tested multiple ascending doses (MAD) of compound I, administering (i) 1 drop of 0.15%, 1.5%, 2.5%, 4 times daily (every 6 hours) for 7 days or (ii) 1 drop of 2.5%, 8 times daily (every 3 hours) for 7 days (supra-therapeutic dose) as eye drops.
Safety assessments: Safety assessments consisted of collecting all adverse events (AEs), serious adverse events (SAEs), including systemic and ocular adverse events, along with their severity and relationship to study drug. Systemic safety assessments included regular monitoring of hematology, blood chemistry and urinalysis performed at study center and regular assessments of physical examination, vital signs (systolic and diastolic blood pressure, pulse rate, and body temperature), ECG, pregnancy and assessments of fertility and hand immersion test at 49° C. during MAD part. Ocular safety assessments included early treatment diabetic retinopathy study (ETDRS) visual acuity, intraocular pressure, slit-lamp biomicroscopy, corneal staining and dilated fundus exam. […]

[2] = PRK clinical study, plasma pharmacokinetics of compound I (LC-MS/MS); format: in vivo, human
Procedure: Pharmacokinetic (PK) samples were collected at the time points defined in the visit schedule supra, with PK blood collection windows shown in Table 27.
All blood samples (3 mL) were taken from the arm by either direct venipuncture or an indwelling catheter inserted in a forearm vein. After each tube of blood was drawn, it was immediately inverted gently 8-10 times to ensure the mixing of tube contents with anticoagulant (3 mL K2 EDTA). Prolonged sample contact with the rubber stopper was avoided and the tubes were placed upright in a test tube rack surrounded by wet ice until centrifugation.
Within 30 minutes, the sample was centrifuged at about 5° C. for 10 minutes at approximately 2000 G (or the sample was placed on ice and centrifuged at room temperature). Immediately after centrifugation, the whole supernatant (approx. 1.5 mL) was transferred in the first 1.8 mL NUNC 2D barcoded cryovial. After mixing the plasma thoroughly, half of the plasma was transferred from the first cryovial to the second cryovial and the caps were secured. Appropriate PK cryolabels were attached to each cryovial and the labels were secured with clear tape. The cryovials were frozen immediately over dry ice then, kept frozen at ≤−20° C. until shipment to the central lab. The vials were shipped in biweekly batches.
Compound I was quantified in plasma using a validated LC-MS/MS method; the lower limit of quantification (LLOQ) was 0.05 ng/mL. Concentrations were expressed in ng per mL units. When feasible, bandage contact lenses (BCL) exposed to study drug were collected and analyzed for residual drug exposure after treatment (LLOQ: 5.00 ng/mL in 0.55 mL of extraction fluid, or 2.75 ng/BCL). Concentrations below the LLOQ were reported as “zero” and missing data were labeled as such.
The following PK parameters were determined as relevant using the actual recorded sampling times and non-compartmental method with Phoenix™ WinNonlin® (Version 6.4): Cmax, Tmax, AUClast (calculated), Clast and Tlast from the plasma concentration-time data. Pre-dose concentrations were determined by inspection at nominal 0, 24 and 72 hours. The linear trapezoidal rule was used for AUClast calculation. No PK parameters were calculated from the bandage contact lenses compound I concentration data.

[3] = Day 1, plasma, topical ocular 2.5% compound I
[4] = Day 4, plasma, topical ocular 2.5% compound I
[5] = human, plasma, topical, 2.5 %, 4 days

`CC(C)c1nc2cc(O)ccc2c(=O)n1-c1ccc(C#N)cc1` [Compound I, 4-(7-hydroxy-2-isopropyl-4-oxo-4H-quinazolin-3-yl)-benzonitrile] showed a solubility ([1]; isopropyl myristate, oil or lipid, solvent: Isopropyl Myrisate) of 90 µg/mL (≈ 295 µM), a solubility ([1]; oil or lipid, solvent: Medium-Chain Triglycerides (Miglyol 812)) of 100 µg/mL (≈ 328 µM) and a solubility ([1]; oil or lipid, solvent: Mineral Oil) of 30 µg/mL (≈ 98.3 µM). For the same compound, the solubility ([1]; oil or lipid, solvent: Oleyl Alcohol) was 120 µg/mL (≈ 393 µM), the solubility ([1]; organic solvent or mixture, solvent: Diisopropyl Adipate) was 160 µg/mL (≈ 524 µM) and the solubility ([1]; organic solvent or mixture, solvent: Ethanol) was 790 µg/mL (≈ 2590 µM). It also gave a solubility ([1]; organic solvent or mixture, solvent: Hexylene Glycol) of 280 µg/mL (≈ 917 µM), a solubility ([1]; organic solvent or mixture, solvent: Isopropanol) of 330 µg/mL (≈ 1080 µM) and a solubility ([1]; organic solvent or mixture, solvent: Isosorbide) of 340 µg/mL (≈ 1110 µM). For the same compound, the solubility ([1]; organic solvent or mixture, solvent: Polyethylene Glycol 200) was 1620 µg/mL (≈ 5310 µM), the solubility ([1]; organic solvent or mixture, solvent: Polyethylene Glycol 300) was 2040 µg/mL (≈ 6680 µM) and the solubility ([1]; organic solvent or mixture, solvent: Polyethylene Glycol 400) was 1660 µg/mL (≈ 5440 µM). For the same compound, the solubility ([1]; organic solvent or mixture, solvent: Propylene Carbonate) was 400 µg/mL (≈ 1310 µM), the solubility ([1]; organic solvent or mixture, solvent: Propylene Glycol) was 1680 µg/mL (≈ 5500 µM) and the solubility ([1]; solvent: Water) was 10 µg/mL (≈ 32.8 µM). The “dose limiting adverse events” value (healthy volunteers; 2.5%) was “No dose limiting adverse events were identified”, the “Maximum Tolerated Dose (MTD)” value (healthy volunteers; eye drops, healthy volunteers) was 2.5% and the “Median Tlast” value [2, 3] was 2.00 h. The “Tlast (range)” value [2, 3] was 1.95 to 2.05 h, the “Median Tlast” value [2, 4] was 2.00 h and the “Tlast (range)” value [2, 4] was 1.77 to 2.10 h. The “Day 1 pre-dose plasma concentrations” value ([2]; LLOQ 0.05 ng/mL) was “below the limit of quantitation”, the Tmax ([2]; human, plasma, topical or ocular, 2.5 %, after either single (first dose) or repeated 4 times daily topical ocular administration, read-out: median plasma Tmax) was ~30 min and the Tmax ([2]; human, plasma, topical or ocular, 2.5 %, after the first dose (Day 1), unilateral topical ocular 2.5%, read-out: median Tmax, plasma) was 27.5 min. The AUC(0-t) ([2]; human, plasma, topical or ocular, 2.5 %, max, profile day 1, plasma, topical ocular 2.5% compound I, read-out: AUClast) was 1.58 ng·h/mL, the Cmax ([2]; human, plasma, topical or ocular, 2.5 %, max, profile day 1, plasma, topical ocular 2.5% compound I, read-out: Cmax) was 1.05 ng/mL and the Tmax ([2]; human, plasma, topical or ocular, 2.5 %, max, profile day 1, plasma, topical ocular 2.5% compound I, read-out: Tmax) was 120 min. For the same compound, the AUC(0-t) ([2]; human, plasma, topical or ocular, 2.5 %, max, profile day 4, plasma, topical ocular 2.5% compound I, read-out: AUClast) was 14.5 ng·h/mL, the Cmax ([2]; human, plasma, topical or ocular, 2.5 %, max, profile day 4, plasma, topical ocular 2.5% compound I, read-out: Cmax) was 7.56 ng/mL and the Tmax ([2]; human, plasma, topical or ocular, 2.5 %, max, profile day 4, plasma, topical ocular 2.5% compound I, read-out: Tmax) was 125 min. The Cmax ([2]; human, plasma, topical or ocular, 2.5 %, mean, profile day 1 (first dose), plasma, topical ocular 2.5% compound I, PK analysis set, read-out: Cmax) was 0.454 ng/mL, the AUC(0-t) ([2]; human, plasma, topical or ocular, 2.5 %, mean, profile day 1, plasma, topical ocular 2.5% compound I, read-out: AUClast) was 0.638 ng·h/mL and the Cmax ([2]; human, plasma, topical or ocular, 2.5 %, mean, profile day 4 (13th dose, QID), plasma, topical ocular 2.5% compound I, read-out: Cmax) was 2.4 ng/mL. It also gave an AUC(0-t) ([2]; human, plasma, topical or ocular, 2.5 %, mean, profile day 4, plasma, topical ocular 2.5% compound I, read-out: AUClast) of 4.38 ng·h/mL, an AUC(0-t) ([2]; human, plasma, topical or ocular, 2.5 %, median, profile day 1, plasma, topical ocular 2.5% compound I, read-out: AUClast) of 0.569 ng·h/mL and a Cmax ([2]; human, plasma, topical or ocular, 2.5 %, median, profile day 1, plasma, topical ocular 2.5% compound I, read-out: Cmax) of 0.375 ng/mL. It also gave a Tmax ([2]; human, plasma, topical or ocular, 2.5 %, median, profile day 1, plasma, topical ocular 2.5% compound I, read-out: Tmax) of 27.5 min, an AUC(0-t) ([2]; human, plasma, topical or ocular, 2.5 %, median, profile day 4, plasma, topical ocular 2.5% compound I, read-out: AUClast) of 3.42 ng·h/mL and a Cmax ([2]; human, plasma, topical or ocular, 2.5 %, median, profile day 4, plasma, topical ocular 2.5% compound I, read-out: Cmax) of 2.07 ng/mL. It also gave a Tmax ([2]; human, plasma, topical or ocular, 2.5 %, median, profile day 4, plasma, topical ocular 2.5% compound I, read-out: Tmax) of 28 min, an AUC(0-t) ([2]; human, plasma, topical or ocular, 2.5 %, min, profile day 1, plasma, topical ocular 2.5% compound I, read-out: AUClast) of 0.261 ng·h/mL and a Cmax ([2]; human, plasma, topical or ocular, 2.5 %, min, profile day 1, plasma, topical ocular 2.5% compound I, read-out: Cmax) of 0.195 ng/mL. For the same compound, the Tmax ([2]; human, plasma, topical or ocular, 2.5 %, min, profile day 1, plasma, topical ocular 2.5% compound I, read-out: Tmax) was 10 min, the AUC(0-t) ([2]; human, plasma, topical or ocular, 2.5 %, min, profile day 4, plasma, topical ocular 2.5% compound I, read-out: AUClast) was 1.18 ng·h/mL and the Cmax ([2]; human, plasma, topical or ocular, 2.5 %, min, profile day 4, plasma, topical ocular 2.5% compound I, read-out: Cmax) was 0.639 ng/mL. The Tmax ([2]; human, plasma, topical or ocular, 2.5 %, min, profile day 4, plasma, topical ocular 2.5% compound I, read-out: Tmax) was 0 min, the Cmax ([2]; human, plasma, topical, 2.5 %, 13th dose on Day 4, read-out: Arithmetic mean plasma Cmax) was 2.4 ng/mL and the AUC(0-t) ([2]; human, plasma, topical, 2.5 %, 13th dose on Day 4, read-out: mean plasma AUClast) was 4.38 ng·h/mL. For the same compound, the “mean AUClast Day 4 versus Day 1” value [2, 5] was 6.9 fold, the “mean Cmax Day 4 versus Day 1” value [2, 5] was 5.3 fold and the Cmax ([2]; human, plasma, topical, 2.5 %, across 4 days of repeated QID dosing, read-out: observed plasma Cmax, range) was 0.195 to 7.56 ng/mL. It also gave an AUC(0-t) ([2]; human, plasma, topical, 2.5 %, across 4 days of repeated QID dosing, read-out: plasma AUClast, range) of 0.261 to 14.5 ng·h/mL, a Tmax ([2]; human, plasma, topical, 2.5 %, after the 13th dose (Day 4), read-out: median Tmax, plasma) of 28 min and a Cmax ([2]; human, plasma, topical, 2.5 %, first dose on Day 1, read-out: Arithmetic mean plasma Cmax) of 0.454 ng/mL. The AUC(0-t) ([2]; human, plasma, topical, 2.5 %, first dose on Day 1, read-out: mean plasma AUClast) was 0.638 ng·h/mL, the concentration at 24 hr ([2]; human, plasma, topical, 2.5 %, prior to the 5th dose on Day 2 (24 hr post 1st dose), read-out: Trough mean plasma concentration) was 1.25 ng/mL and the concentration at 72 hr ([2]; human, plasma, topical, 2.5 %, prior to the 13th dose on Day 4 (72 hr post 1st dose), read-out: Trough mean plasma concentration) was 1.99 ng/mL.
